{"source": "the supplement of paper PMC10307832", "assay_in_all_cases": "relative viability (nuclei count vs DMSO), 5 days (fraction); higher = more cells survive", "key": {"NCI-H1703": {"system": "NCI-H1703", "summary_of_the_method": "(§1)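 Dosing by pin tool came one day after lung cancer cell lines were seeded in 1536-well plates, using either one drug or a fixed anchor-drug dose plus five library-drug doses (not always all listed) in √10 steps. After 5 days, nuclei were counted on 4× images. Relative viability is treated-well nuclei count divided by vehicle-well nuclei count, and values are medians of duplicate plates.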"}, "HCC-44": {"system": "HCC-44", "summary_of_the_method": "as §1"}, "NCI-H1299": {"system": "NCI-H1299", "summary_of_the_method": "as §1"}, "A549": {"system": "A549", "summary_of_the_method": "as §1"}, "NCI-H2085": {"system": "NCI-H2085", "summary_of_the_method": "as §1"}, "NCI-H1437": {"system": "NCI-H1437", "summary_of_the_method": "as §1"}, "HCC-366": {"system": "HCC-366", "summary_of_the_method": "as §1"}, "LOU-NH91": {"system": "LOU-NH91", "summary_of_the_method": "as §1"}, "IA-LM": {"system": "IA-LM", "summary_of_the_method": "as §1"}, "EBC-1": {"system": "EBC-1", "summary_of_the_method": "as §1"}, "LXF-289": {"system": "LXF-289", "summary_of_the_method": "as §1"}, "Calu-6": {"system": "Calu-6", "summary_of_the_method": "as §1"}, "NCI-H3122": {"system": "NCI-H3122", "summary_of_the_method": "as §1"}}}
{"smiles": "COc1cc2nccc(Oc3ccc(NC(=O)Nc4cc(C)on4)c(Cl)c3)c2cc1OC", "note": "[Tivozanib] + Cc1nc(NC(=O)N2CCC[C@H]2C(N)=O)sc1-c1ccnc(C(C)(C)C(F)(F)F)c1 [Alpelisib] (partner 2 µM)", "values": [{"measurement": "relative viability", "setting": "NCI-H1703; first compound 0.005 µM", "result": 0.262}, {"measurement": "relative viability", "setting": "NCI-H1703; first compound 0.01581 µM", "result": 0.179}, {"measurement": "relative viability", "setting": "NCI-H1703; first compound 0.05 µM", "result": 0.201}, {"measurement": "relative viability", "setting": "NCI-H1703; first compound 0.1581 µM", "result": 0.155}, {"measurement": "relative viability", "setting": "NCI-H1703; first compound 0.5 µM", "result": 0.203}, {"measurement": "relative viability", "setting": "HCC-44; first compound 0.005 µM", "result": 0.815}, {"measurement": "relative viability", "setting": "HCC-44; first compound 0.01581 µM", "result": 0.758}, {"measurement": "relative viability", "setting": "HCC-44; first compound 0.05 µM", "result": 0.803}, {"measurement": "relative viability", "setting": "HCC-44; first compound 0.1581 µM", "result": 0.756}, {"measurement": "relative viability", "setting": "HCC-44; first compound 0.5 µM", "result": 0.831}, {"measurement": "relative viability", "setting": "NCI-H1299; first compound 0.005 µM", "result": 1.09}, {"measurement": "relative viability", "setting": "NCI-H1299; first compound 0.01581 µM", "result": 1.11}, {"measurement": "relative viability", "setting": "NCI-H1299; first compound 0.05 µM", "result": 1.08}, {"measurement": "relative viability", "setting": "NCI-H1299; first compound 0.1581 µM", "result": 1.13}, {"measurement": "relative viability", "setting": "NCI-H1299; first compound 0.5 µM", "result": 1.06}, {"measurement": "relative viability", "setting": "A549; first compound 0.005 µM", "result": 0.715}, {"measurement": "relative viability", "setting": "A549; first compound 0.01581 µM", "result": 0.754}, {"measurement": "relative viability", "setting": "A549; first compound 0.05 µM", "result": 0.793}, {"measurement": "relative viability", "setting": "A549; first compound 0.1581 µM", "result": 0.612}, {"measurement": "relative viability", "setting": "A549; first compound 0.5 µM", "result": 0.774}, {"measurement": "relative viability", "setting": "NCI-H2085; first compound 0.005 µM", "result": 1.02}, {"measurement": "relative viability", "setting": "NCI-H2085; first compound 0.01581 µM", "result": 0.978}, {"measurement": "relative viability", "setting": "NCI-H2085; first compound 0.05 µM", "result": 0.905}, {"measurement": "relative viability", "setting": "NCI-H2085; first compound 0.1581 µM", "result": 0.963}, {"measurement": "relative viability", "setting": "NCI-H2085; first compound 0.5 µM", "result": 0.642}, {"measurement": "relative viability", "setting": "NCI-H1437; first compound 0.005 µM", "result": 1.02}, {"measurement": "relative viability", "setting": "NCI-H1437; first compound 0.01581 µM", "result": 1}, {"measurement": "relative viability", "setting": "NCI-H1437; first compound 0.05 µM", "result": 1}, {"measurement": "relative viability", "setting": "NCI-H1437; first compound 0.1581 µM", "result": 0.943}, {"measurement": "relative viability", "setting": "NCI-H1437; first compound 0.5 µM", "result": 0.959}, {"measurement": "relative viability", "setting": "HCC-366; first compound 0.005 µM", "result": 0.297}, {"measurement": "relative viability", "setting": "HCC-366; first compound 0.01581 µM", "result": 0.448}, {"measurement": "relative viability", "setting": "HCC-366; first compound 0.05 µM", "result": 0.381}, {"measurement": "relative viability", "setting": "HCC-366; first compound 0.1581 µM", "result": 0.51}, {"measurement": "relative viability", "setting": "HCC-366; first compound 0.5 µM", "result": 0.388}, {"measurement": "relative viability", "setting": "LOU-NH91; first compound 0.005 µM", "result": 0.69}, {"measurement": "relative viability", "setting": "LOU-NH91; first compound 0.01581 µM", "result": 0.698}, {"measurement": "relative viability", "setting": "LOU-NH91; first compound 0.05 µM", "result": 0.778}, {"measurement": "relative viability", "setting": "LOU-NH91; first compound 0.1581 µM", "result": 0.732}, {"measurement": "relative viability", "setting": "LOU-NH91; first compound 0.5 µM", "result": 0.752}, {"measurement": "relative viability", "setting": "IA-LM; first compound 0.005 µM", "result": 0.659}, {"measurement": "relative viability", "setting": "IA-LM; first compound 0.01581 µM", "result": 0.623}, {"measurement": "relative viability", "setting": "IA-LM; first compound 0.05 µM", "result": 0.718}, {"measurement": "relative viability", "setting": "IA-LM; first compound 0.1581 µM", "result": 0.597}, {"measurement": "relative viability", "setting": "IA-LM; first compound 0.5 µM", "result": 0.531}, {"measurement": "relative viability", "setting": "EBC-1; first compound 0.005 µM", "result": 0.79}, {"measurement": "relative viability", "setting": "EBC-1; first compound 0.01581 µM", "result": 0.924}, {"measurement": "relative viability", "setting": "EBC-1; first compound 0.05 µM", "result": 0.811}, {"measurement": "relative viability", "setting": "EBC-1; first compound 0.1581 µM", "result": 0.59}, {"measurement": "relative viability", "setting": "EBC-1; first compound 0.5 µM", "result": 0.74}, {"measurement": "relative viability", "setting": "LXF-289; first compound 0.005 µM", "result": 1.02}, {"measurement": "relative viability", "setting": "LXF-289; first compound 0.01581 µM", "result": 0.966}, {"measurement": "relative viability", "setting": "LXF-289; first compound 0.05 µM", "result": 1.06}, {"measurement": "relative viability", "setting": "LXF-289; first compound 0.1581 µM", "result": 1.09}, {"measurement": "relative viability", "setting": "LXF-289; first compound 0.5 µM", "result": 1.02}, {"measurement": "relative viability", "setting": "Calu-6; first compound 0.005 µM", "result": 0.993}, {"measurement": "relative viability", "setting": "Calu-6; first compound 0.01581 µM", "result": 0.969}, {"measurement": "relative viability", "setting": "Calu-6; first compound 0.05 µM", "result": 0.943}, {"measurement": "relative viability", "setting": "Calu-6; first compound 0.1581 µM", "result": 0.863}, {"measurement": "relative viability", "setting": "Calu-6; first compound 0.5 µM", "result": 0.874}, {"measurement": "relative viability", "setting": "NCI-H3122; first compound 0.005 µM", "result": 0.668}, {"measurement": "relative viability", "setting": "NCI-H3122; first compound 0.01581 µM", "result": 0.792}, {"measurement": "relative viability", "setting": "NCI-H3122; first compound 0.05 µM", "result": 0.798}, {"measurement": "relative viability", "setting": "NCI-H3122; first compound 0.1581 µM", "result": 0.973}, {"measurement": "relative viability", "setting": "NCI-H3122; first compound 0.5 µM", "result": 0.983}]}
